Assay results from patent US6420367B1, “Pyrimidine derivatives exhibiting antitumor activity” (Shionogo & Co., Ltd., priority 1998, dated 2002).
Values after ≈ are worked out from the molar mass of the structure shown.

Experiments:
[1] = system: DT-R cells (pRRE3-luc-transfected v-ki-ras-transformed NIH3T3 cells); signal derived from Ras oncogene products; experiment: Inhibitory effect against cellular signaling derived from Ras oncogene products: luciferase reporter, dissociation of DT-R from DT-C activity (MAC); assay type: cell-based, mouse; settings: minimal tested concentration at which luciferase activities of DT-C cells and DT-R cells dissociated
Description: (§1) Test Example 1 Inhibitory Effect Against Cellular Signaling Derived From Ras Oncogene Products
(§2) 1) Establishment of Cell Lines Used in Assay
(§3) Based on the reporter plasmid (pGV-P (Toyo Ink, Japan)), in which luciferase gene was ligated to SV40-derived minimal promoter, we constructed a plasmid designated pRRE3-luc by inserting 3 copies of chemically synthesized oligonucleotides (Sequence: CAGGATATGACTCT, derived from mouse NVL-3 (M. A. Reddy et al.(1992)Mol. Endocrinol., 6, 1051)) into upstream of the promoter. v-ki-ras-transformed NIH3T3 cells (DT cells, provided by Dr. Makoto Noda (Kyoto Univ., School of medicine)) were transfected with this plasmid by liposome-mediated transfection and transfected cell lines stably incorporated and maintained each plasmid were obtained. We named pGV-P and pRRE3-transfected cell line as DT-C and DT-R, respectively and used in the assay described below.
(§4) 2) Preparation of Samples
(§5) i) All the cell lines were cultured in Dulbecco's Modified Essential Medium (DMEM: 10% Fetal Calf Serum(FCS: Hyclone, USA)) including […] kanamycin (Meiji Seika, Japan) in humidified incubator under condition of 5% CO2 at 37° C.
(§6) ii) DT-C and DT-R cells were seeded at 2500 cells/well into flat-bottom 96 well multiplate (Sumitomo bakelite) and incubated for 24 hours.
(§7) iii) Test compounds were prepared as 1 mg/ml DMSO solution.
(§8) iv) The solution of test compounds were added to the culture. Tested compounds are used at the concentration from […] to 0.51 ng/ml with by 3-fold dilution.
(§9) v) After 24 hours, the culture supernatant was completely aspirated and […] of cell-lysing solution (PGC-50 (Toyo Ink, Japan)) was added before cells were dried up. In order to the cells were lysed completely, multiwell plates were left at room temperature for 10 to 30 min. The plates were wrapped up and stored at −20° C. till the day of measurement.
(§10) 3) Measurement of Samples
(§11) i) Melt the samples by putting 96 well multiplate at 37° C. and add 90 μl/well 25 mM Tris (pH 7.5).
(§12) ii) Transfer 50 μl of the sample (110 μl) to the 96 well microplate for measurement (Microlite 1 (Dynatech)).
(§13) iii) Measure the samples by the luminometer, LUMINOUS CT9000D (Dia-Yatron, Japan). We used Pickagene luminescence kit PGL2000 or LT2.0 (Toyo Ink, Japan) as substrates for luminescence measurement (50 μl/well).
(§14) 4) Judgment of the Results
(§15) i) The luciferase activity of DT-C cells and DT-R cells were plotted in the graph where the relative activity and the compound concentration were expressed as Y-axis and X-axis, respectively. We judged by the degree of dissociation between the activities of DT-C cells and DT-R cells as an index.
(§16) ii) Concretely, efficacy of the compound was expressed by two values described below.
a) Among the points of concentration tested, the minimal concentration (Minimal Active Concentration: MAC), at which the activities of DT-C cells and DT-R cells dissociated, was shown as an index of efficacy of the compound.

[2] = system: DT-C cells (pGV-P-transfected v-ki-ras-transformed NIH3T3 cells); experiment: Luciferase activity in control DT-C cells (IC50-C): non-specific transcription-inhibitory effect or cytotoxicity; assay type: cell-based, mouse; settings: tested concentration nearest to 50% inhibition in DT-C cells; index of non-specific transcription inhibition or cytotoxicity
Description: as §1, §2, §3, §4, §5, §6, §7, §8, §9, §10, §11, §12, §13, §14, §15, §16
b) Among the points of concentration tested, the concentration which is the nearest to 50% inhibition concentration at DT-C cells (IC50-C), was shown as an index of non-specific transcription-inhibitory effect or of cytotoxicity. In case of positive compounds, 50% inhibition concentration above the area of active concentration in DT-C cells was expressed as IC50-C.

[3] = system: human squamous lung cancer RERF-RC-AI; experiment: In vitro cell growth inhibition test, MTT assay; assay type: cell-based; settings: MTT assay 4 days after compound addition
Outline: (§17)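 Read-out is MTT-based cell growth inhibition, run in parallel on human lung, colon and pancreatic (PANC-1) tumour lines.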

[4] = system: human squamous lung cancer Ma44; experiment: In vitro cell growth inhibition test, MTT assay; assay type: cell-based; settings: MTT assay 4 days after compound addition
Outline: as §17

human colon cancer HT29 = experiment: In vitro cell growth inhibition test, MTT assay; assay type: cell-based; settings: MTT assay 4 days after compound addition
Outline: as §17

[5] = system: human pancreas cancer PANC-1; experiment: In vitro cell growth inhibition test, MTT assay; assay type: cell-based; settings: MTT assay 4 days after compound addition
Outline: as §17

[6] = system: human lung adenocarcinoma A549; experiment: In vitro cell growth inhibition test, MTT assay; assay type: cell-based; settings: MTT assay 4 days after compound addition
Outline: as §17

| SMILES | MAC (Minimal Active Concentration) [1] [µg/mL] | IC50-C [2] [µg/mL] | IC50, RERF-LC-AI [3] [µg/mL] | IC50, Ma44 [4] [µg/mL] | IC50, HT29 (human colon cancer HT29) [µg/mL] | IC50, PANC-1 [5] [µg/mL] | IC50, A549 [6] [µg/mL] |
| --- | --- | --- | --- | --- | --- | --- | --- |
| CCNC(=Nc1nc(C)ncc1CSc1nnc(-c2ccc(N)cc2O)o1)NCC [Compound A-96] | 0.370 | >10 | – | – | – | – | – |
| CCNC(=Nc1nc(C)ncc1CSc1nnc(-c2ccc(F)cc2N)o1)NCC [Compound A-49] | <0.000508 | 3.33 (≈ 7.73 µM) | 0.0016 (≈ 0.00372 µM) | 0.0032 (≈ 0.00743 µM) | 0.0028 (≈ 0.0065 µM) | – | – |
| CCCNC(=Nc1nc(C)ncc1CSc1nnc(-c2ccc([N+](=O)[O-])cc2)o1)NC.Cl [Compound A-164] | 0.0137 | >10 | – | – | – | – | – |
| CCCNC(=Nc1nc(C)ncc1CSc1nnc(-c2ccc(N)cc2)o1)NCCC.Cl.Cl [Compound A-160] | 0.0137 | >10 | – | – | – | – | – |
| CCNC(=Nc1nc(C)ncc1CSc1nnc(-c2c(N)cccc2F)o1)NCC [Compound A-51] | 0.123 | 3.33 (≈ 7.73 µM) | 0.012 (≈ 0.0279 µM) | 0.088 (≈ 0.204 µM) | 0.028 (≈ 0.065 µM) | – | – |
| CCCNC(=Nc1ncncc1CSc1nnc(-c2ccc([N+](=O)[O-])cc2)o1)NCC [Compound A-179] | 0.0137 | – | 0.002 (≈ 0.00452 µM) | 0.0026 (≈ 0.00588 µM) | 0.0063 (≈ 0.0142 µM) | 0.0018 (≈ 0.00407 µM) | 0.014 (≈ 0.0316 µM) |
| CCCNC(=Nc1nc(C)ncc1CSc1nnc(-c2ccc(N)cc2)o1)NCC [Compound A-167] | 0.0137 | – | 0.0032 (≈ 0.0075 µM) | 0.025 (≈ 0.0586 µM) | 0.0061 (≈ 0.0143 µM) | 0.006 (≈ 0.0141 µM) | 0.012 (≈ 0.0281 µM) |
| CCNC(=Nc1ncncc1CSc1nnc(-c2ccc(N)cc2)o1)NC [Compound A-176] | 0.123 | – | 0.0032 (≈ 0.00832 µM) | 0.018 (≈ 0.0468 µM) | 0.006 (≈ 0.0156 µM) | 0.0056 (≈ 0.0146 µM) | 0.012 (≈ 0.0312 µM) |
| CCNC(=Nc1nc(C)ncc1CSc1nnc(-c2ccc(N)cc2OC)o1)NCC.Cl [Compound A-189] | 0.0412 | – | 0.016 | 0.085 | 0.032 | 0.021 | 0.051 |
| CCNC(N)=Nc1nc(C)ncc1CSc1nnc(-c2ccc(N)cc2)o1 [Compound A-184] | 0.0412 | – | 0.0027 (≈ 0.00702 µM) | 0.016 (≈ 0.0416 µM) | 0.0077 (≈ 0.02 µM) | 0.0032 (≈ 0.00832 µM) | 0.01 (≈ 0.026 µM) |
| CCNC(=Nc1nc(C)ncc1CSc1nnc(-c2ccc(N)cc2OC)o1)NCC [Compound A-141] | 0.0412 | – | 0.016 (≈ 0.0362 µM) | 0.085 (≈ 0.192 µM) | 0.032 (≈ 0.0723 µM) | 0.021 (≈ 0.0475 µM) | 0.051 (≈ 0.115 µM) |
| CNC(=Nc1nc(C)ncc1CSc1nnc(-c2ccccc2N)o1)NC [Compound A-70] | 0.123 | – | 0.0067 (≈ 0.0174 µM) | 0.032 (≈ 0.0832 µM) | 0.0084 (≈ 0.0218 µM) | 0.015 (≈ 0.039 µM) | 0.013 (≈ 0.0338 µM) |
